Tested on: 598228-144-R-J1-PDC complex spheroids, viability
Experiment: Anticancer human tumor 598228-144-R-J1-PDC patient-derived serous endometrial adenocarcinoma cell line growth inhibition [CLK]
Conditions: for IC50: curve of first compound; for viability, T/C: stronger effect = lower value
Excerpt: A high-throughput screen of multi-cell type tumor spheroids was designed to identify active combinations of […] and targeted small molecules. Complex spheroids include a stromal component modeled by human endothelial cells (HUVEC) and fibroblasts modeled by human mesenchymal stem cells (MSCs). The concentration ranges selected for each drug and investigational agent were based upon clinically achievable concentrations if the clinical Cmax of the agent was known.
Compounds. The drugs and investigational agents: cirtuvivint (SM08502; NSC835563), CC-671 (NSC850746), vemurafenib (NSC761431), tapotoclax (NSC804041), sotorasib (NSC818433), adagrasib (NSC831453), MRTX-1133 (NSC836407), BAY2416964 (NSC825713), copanlisib (NSC816437), inavolisib (NSC800729), abemaciclib (NSC768073), osimertinib (NSC779217), entinostat (NSC756642), eltanexor (KPT-8602, NSC794443), venetoclax (NSC766270), ceralasertib (NSC777638), bortezomib (NSC756655), olaparib (NSC753686), talazoparib (NSC767125), alisertib (NSC759677), peposertib (NSC802822), gemcitabine (NSC613327), 5-fluorouracil (NSC19893), SN-38 (NSC673596), oxaliplatin (NSC266046), paclitaxel (NSC125973), and doxorubicin (NSC123127), were obtained from the National Cancer Institute (NCI) Developmental Therapeutics Program Chemical Repository. The FDA-approved anticancer drug set is available from the Developmental Therapeutics Program at https://dtp.cancer.gov/organization/dscb/obtaining/available plates.htm. […] The stock solutions were prepared in dimethyl sulfoxide (DMSO, Sigma-Aldrich, St. Louis, MO, cat. D2650), except for the platinum complexes which were prepared in saline (Quality Biological, Gaithersburg, MD, cat. 114-055-101), at 800-fold the tested concentration and stored at -70 degrees C prior to their use. All drugs and investigational agents were tested over a range starting from a high concentration at or near the clinical Cmax and decreasing in half-log increments. If the clinical Cmax for an agent had not been determined, the highest concentration tested was 10 microM.
Cell Culture. All cells were maintained in an incubator at 37 degrees C and 5% CO2 with 95% humidity. The PDC lines were cultured according to standard operating procedures established by the NCI PDMR. Briefly, all PDCs were thawed and cultured in Matrigel-coated flasks prepared with a working solution of 1X Ham's F-12 nutrient mix, without supplementation (Invitrogen, Waltham, MA, cat. 11765054), 100 U/mL penicillin-streptomycin (Invitrogen, cat. 15140122), and 2.5% Matrigel (Corning Inc., Corning, NY, cat. 354248) for the first three passages. The 947758-054-R-J2-PDC line was cultured in 6B/Colon 1A media, which includes advanced DMEM/F-12 (Thermo Fisher Scientific, cat. 12634028), 10 mM HEPES (Thermo Fisher Scientific, cat. 15630080), 1X GlutaMAX supplement (Thermo Fisher Scientific, cat. 35050061), 0.1 mg/mL primocin (InvivoGen, cat. ant-pm-2), 10% defined fetal bovine serum, heat inactivated (HyClone Laboratories Inc., cat. SH30070.03HI), 1.25 mM N-Acetyl-L-cysteine (Sigma-Aldrich, cat. A9165), 10 mM nicotinamide (Sigma-Aldrich, cat. N0636), 1X B-27 supplement (Thermo Fisher Scientific, cat. 17504044), 1X N-2 supplement (Thermo Fisher Scientific, cat. 17502048), and 10 microM Y-27632 dihydrochloride (Tocris Bioscience, cat. 1254). The 876862-298-R-J1-PDC was cultured in 6E media, which includes all 6B/Colon 1A media components plus 50% L-WRN conditioned media (ATCC, cat. CRL-3276), 50 ng/mL recombinant human EGF recombinant protein (hEGF; Thermo Fisher Scientific, cat. PHG0311), 10 ng/mL recombinant human fibroblast growth factor 10 (hGFG-10; PeproTech, cat. 100-26), 1 ng/mL recombinant human fibroblast growth factor 2 (hFGF-2; PeproTech, cat. 100-18B), and 1 µM prostaglandin E2 (PGE2; Tocris, cat. 2296). The 227483-062-R1-J1-PDC line was cultured in Panc media, containing all 6E components except hFGF-2, with the addition of 500 nM SB-431542 (Selleckchem, cat. S1067) and 10 nM gastrin (Tocris, cat. 3006). […]

[1] = second compound 0.0316 µM, first compound 0.0316 µM
[2] = second compound 0.0316 µM, first compound 0.1 µM
[3] = second compound 0.0316 µM, first compound 0.316 µM
[4] = second compound 0.0316 µM, first compound 1 µM
[5] = second compound 0.0316 µM, first compound 3.16 µM
[6] = second compound 0.0316 µM, first compound 10 µM
[7] = second compound 0.1 µM, first compound 0.0316 µM
[8] = second compound 0.1 µM, first compound 0.1 µM
[9] = second compound 0.1 µM, first compound 0.316 µM
[10] = second compound 0.1 µM, first compound 1 µM
[11] = second compound 0.1 µM, first compound 3.16 µM
[12] = second compound 0.1 µM, first compound 10 µM
[13] = second compound 0.316 µM, first compound 0.0316 µM
[14] = second compound 0.316 µM, first compound 0.1 µM
[15] = second compound 0.316 µM, first compound 0.316 µM
[16] = second compound 0.316 µM, first compound 1 µM
[17] = second compound 0.316 µM, first compound 3.16 µM
[18] = second compound 0.316 µM, first compound 10 µM
[19] = second compound 1 µM, first compound 0.0316 µM
[20] = second compound 1 µM, first compound 0.1 µM
[21] = second compound 1 µM, first compound 0.316 µM
[22] = second compound 1 µM, first compound 1 µM
[23] = second compound 1 µM, first compound 3.16 µM
[24] = second compound 1 µM, first compound 10 µM
[25] = second compound 3.16 µM, first compound 0.0316 µM
[26] = second compound 3.16 µM, first compound 0.1 µM
[27] = second compound 3.16 µM, first compound 0.316 µM
[28] = second compound 3.16 µM, first compound 1 µM
[29] = second compound 3.16 µM, first compound 3.16 µM
[30] = second compound 3.16 µM, first compound 10 µM
[31] = second compound 10 µM, first compound 0.0316 µM
[32] = second compound 10 µM, first compound 0.1 µM
[33] = second compound 10 µM, first compound 0.316 µM
[34] = second compound 10 µM, first compound 1 µM
[35] = second compound 10 µM, first compound 3.16 µM
[36] = second compound 10 µM, first compound 10 µM
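Further: spheroids exposed to compounds for seven days before readout.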
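Wherever viability, T/C is given: 100% = DMSO vehicle control wells.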

In the case of C#Cc1c(F)ccc2cc(O)cc(-c3ncc4c(N5CC6CCC(C5)N6)nc(OCC56CCCN5CC(F)C6)nc4c3F)c12 (stereo unspecified) + CN1CCN(c2cc(C(=O)Nc3cc4cc(-c5cnn(C)c5)ccc4cn3)ccn2)CC1, the IC50 (second compound 0.0316 µM) is reported as over 10 µM, the IC50 (second compound 0.1 µM) is reported as over 10 µM and the IC50 (second compound 0.316 µM) is reported as under 0.0316 µM. It also gave an IC50 (second compound 1 µM) of under 0.0316 µM, an IC50 (second compound 3.16 µM) of under 0.0316 µM and an IC50 (second compound 10 µM) of under 0.0316 µM. For the same compound, the viability, T/C [1] was 132%, the viability, T/C [2] was 124% and the viability, T/C [3] was 125%. For the same compound, the viability, T/C [4] was 135%, the viability, T/C [5] was 117% and the viability, T/C [6] was 124%. The viability, T/C [7] was 133%, the viability, T/C [8] was 157% and the viability, T/C [9] was 136%. The viability, T/C [10] was 124%, the viability, T/C [11] was 125% and the viability, T/C [12] was 121%. For the same compound, the viability, T/C [13] was 17.1%, the viability, T/C [14] was 13.9% and the viability, T/C [15] was 16%. For the same compound, the viability, T/C [16] was 19.5%, the viability, T/C [17] was 17.8% and the viability, T/C [18] was 16.2%. The viability, T/C [19] was 1.68%, the viability, T/C [20] was 1.68% and the viability, T/C [21] was 2.02%. It also gave a viability, T/C [22] of 1.73%, a viability, T/C [23] of 1.51% and a viability, T/C [24] of 1.49%. For the same compound, the viability, T/C [25] was 1.98%, the viability, T/C [26] was 5.99% and the viability, T/C [27] was 2.15%. The viability, T/C [28] was 1.76%, the viability, T/C [29] was 1.24% and the viability, T/C [30] was 3.29%. It also gave a viability, T/C [31] of 1.05%, a viability, T/C [32] of 2.3% and a viability, T/C [33] of 0.88%. It also gave a viability, T/C [34] of 0.94%, a viability, T/C [35] of 1% and a viability, T/C [36] of 0.39%.

With C=C(F)C(=O)N1CCN(c2nc(OCC3CCCN3C)nc3c2CCN(c2cccc4cccc(Cl)c24)C3)CC1CC#N (stereo unspecified) + CN1CCN(c2cc(C(=O)Nc3cc4cc(-c5cnn(C)c5)ccc4cn3)ccn2)CC1 the IC50 (second compound 0.0316 µM) was 5.38 µM, the IC50 (second compound 0.1 µM) was 5.53 µM and the IC50 (second compound 0.316 µM) was under 0.0316 µM. It also gave an IC50 (second compound 1 µM) of under 0.0316 µM, an IC50 (second compound 3.16 µM) of under 0.0316 µM and an IC50 (second compound 10 µM) of under 0.0316 µM. It also gave a viability, T/C [1] of 120%, a viability, T/C [2] of 116% and a viability, T/C [3] of 123%. It also gave a viability, T/C [4] of 122%, a viability, T/C [5] of 91.6% and a viability, T/C [6] of 1.53%. For the same compound, the viability, T/C [7] was 131%, the viability, T/C [8] was 123% and the viability, T/C [9] was 116%. The viability, T/C [10] was 135%, the viability, T/C [11] was 95.7% and the viability, T/C [12] was 1.5%. The viability, T/C [13] was 17.1%, the viability, T/C [14] was 20% and the viability, T/C [15] was 17.4%. It also gave a viability, T/C [16] of 18.9%, a viability, T/C [17] of 11.9% and a viability, T/C [18] of 0.14%. The viability, T/C [19] was 2.31%, the viability, T/C [20] was 2.11% and the viability, T/C [21] was 1.77%. For the same compound, the viability, T/C [22] was 1.1%, the viability, T/C [23] was 1.88% and the viability, T/C [24] was 0.11%. For the same compound, the viability, T/C [25] was 1.76%, the viability, T/C [26] was 3.04% and the viability, T/C [27] was 1.61%. The viability, T/C [28] was 2.21%, the viability, T/C [29] was 2.11% and the viability, T/C [30] was 0.17%. The viability, T/C [31] was 1.18%, the viability, T/C [32] was 1.1% and the viability, T/C [33] was 3.38%. It also gave a viability, T/C [34] of 0.85%, a viability, T/C [35] of 1.73% and a viability, T/C [36] of 3.8%.

CC(CO)NC(=O)c1cc(-c2ccc(Cl)cc2)nn(-c2cnn(C)c2)c1=O (stereo unspecified) + CN1CCN(c2cc(C(=O)Nc3cc4cc(-c5cnn(C)c5)ccc4cn3)ccn2)CC1 was tested, and the IC50 (second compound 0.0316 µM) was over 10 µM, the IC50 (second compound 0.1 µM) was over 10 µM and the IC50 (second compound 0.316 µM) was under 0.0316 µM. The IC50 (second compound 1 µM) was under 0.0316 µM, the IC50 (second compound 3.16 µM) was under 0.0316 µM and the IC50 (second compound 10 µM) was under 0.0316 µM. For the same compound, the viability, T/C [1] was 129%, the viability, T/C [2] was 113% and the viability, T/C [3] was 128%. It also gave a viability, T/C [4] of 120%, a viability, T/C [5] of 115% and a viability, T/C [6] of 108%. The viability, T/C [7] was 130%, the viability, T/C [8] was 128% and the viability, T/C [9] was 135%. The viability, T/C [10] was 125%, the viability, T/C [11] was 135% and the viability, T/C [12] was 130%. The viability, T/C [13] was 21.2%, the viability, T/C [14] was 17% and the viability, T/C [15] was 17.9%. It also gave a viability, T/C [16] of 17.5%, a viability, T/C [17] of 18.3% and a viability, T/C [18] of 18.2%. For the same compound, the viability, T/C [19] was 2.7%, the viability, T/C [20] was 2.28% and the viability, T/C [21] was 1.94%. For the same compound, the viability, T/C [22] was 1.84%, the viability, T/C [23] was 2.34% and the viability, T/C [24] was 1.94%. The viability, T/C [25] was 2.22%, the viability, T/C [26] was 2.04% and the viability, T/C [27] was 1.99%. It also gave a viability, T/C [28] of 2.65%, a viability, T/C [29] of 2.74% and a viability, T/C [30] of 2.69%. The viability, T/C [31] was 1.3%, the viability, T/C [32] was 1.36% and the viability, T/C [33] was 2.02%. It also gave a viability, T/C [34] of 1.53%, a viability, T/C [35] of 3.43% and a viability, T/C [36] of 2.58%.

Source: PubChem BioAssay AID2060614 (Molecular Pharmacology Branch, DTP, NCI, 2025)
